{"source": "patent US7056506B2", "about": "“Methods for detecting and inhibiting angiogenesis” (The Regents of the University of California, priority 1998, dated 2006)", "key": {"[1]": {"test_system": "VEGF-induced angiogenesis on the chick CAM", "assay": "In ovo chick CAM angiogenesis assay, VEGF stimulated", "assay_type": "in vivo", "conditions": "VEGF stimulated CAM", "excerpt": "Ten day old embryonated chicken eggs (McIntyre Poultry; Ramona Calif.) were candled to illuminate blood vessels under the shell and an area with a minimum of small blood vessels is identified. The CAM was dropped away from the eggshell in this area by grinding a small hole in the mineralized shell and applying pressure to the underlying inner shell membrane. This procedure caused an air pocket to shift from the wide end of the egg to the identified area and forcing a circular region of the CAM approximately 2 cm in diameter to drop away from the shell. A window was cut in the egg shell and a cortisone acetate pre-treated filter disc 5 mm in diameter that had been saturated in 1 μg/ml bFGF, VEGF, TNFα, IL-8 (Genzyme, Inc.; Cambridge Mass.) or saline was placed on the CAM. The window in the shell was sealed with adhesive tape and the egg was incubated for four days.\nAnti-fibronectin antibodies (25 μg in 25 μl) also were applied topically to the CAM.\nFibronectin, vitronectin and fibronectin fragments (59 pmol in a final volume of 25 μl) were applied to stimulated or unstimulated CAM's. Peptide or small molecule antagonists of α5β1 (at a final serum concentration of 0–25 μM) also were injected intravenously into the chick circulation 24 hr later. CAM's were harvested on the fourth day of stimulation. Blood vessel branch points in the 5 mm filter disk area were counted at 30× magnification in a blinded fashion as a size-independent quantitative indicator of vascular sprouting in response to growth factors. Angiogenesis is characterized by the sprouting of new vessels in response to growth factors. Thus, counting of blood vessel branch points is a useful quantitative means of obtaining an angiogenic index (Brooks et al., In “Methods in Molecular Biology” (Humana Press 1999). At least ten embryos were used per treatment group. Each experiment was performed a minimum of three times.\nData was evaluated in terms of average number of blood vessel branch points per treatment group +/−standard error of measurement . Statistical analyses were performed using Student's t-test. Representative CAMS from each treatment group were photographed at 10X magnification. In some cases, CAM tissue excised from the egg was frozen in OCT (Baxter; McGraw Park Ill.) in liquid nitrogen, cut into 5 μm sections, air dried and processed for immunohistochemical analysis as described in Example I, except without fixation."}, "HUVEC's": {"test_system": "HUVEC's", "assay": "Cell migration assay on fibronectin", "assay_type": "cell-based, human", "protocol": "The lower side of 8 μm pore transwell inserts (Costar, Inc.) were coated with 2 μg/ml of fibronectin, collagen (Collaborative Biomedical Products; Bedford Mass.) or no protein for 1 hr and were blocked with 2% BSA in PBS for 1 hr. The inserts then were placed into 24 well culture dishes containing 500 μl migration buffer in the lower chamber. Twenty-five thousand HUVEC's in 50 μl of migration buffer (HEPES buffered M199 medium containing 1% BSA, 2 mM MgCl2, 2 mM CaCl2 and 0.2 mM MnCl2) were added to the upper chamber of duplicate inserts containing 50 μl of a solution of 50 μg/ml of anti-α5β1 function blocking antibody (NKI-SAM-1, JBS5 or IIA1), 50 μg/ml of anti-α5β1 non-function blocking antibody (HA5 or VC5), or 50 μg/ml of LM609 (an anti-αVβ3 function blocking antibody) in migration buffer, or migration buffer alone.\nCells were allowed to migrate from the upper to the lower chamber for 4 hr at 37° C. Nonmigratory cells were removed from the upper surface by wiping the upper side with an absorbant tip, and cells that had migrated to the lower side of the transwell insert were fixed for 15 min with 3.7% paraformaldehyde in PBS, then stained with a 2% crystal violet solution. After extensive water washing to remove excess crystal violet, the number of cells that had migrated were counted in three representative high power (200×) fields per insert. […]"}, "integrin αVβ3": {"biological_target": "T1, integrin αVβ3 (Homo sapiens, UniProt P05106+P06756)", "T1 construct": "Integrin αVβ3 and α5β1 receptor purified from human placenta were obtained from Chemicon International; purchased Chemicon International; host or cells: purified from human placenta (natural tissue)", "T1 sequence (P06756 31-889 limits assumed)": "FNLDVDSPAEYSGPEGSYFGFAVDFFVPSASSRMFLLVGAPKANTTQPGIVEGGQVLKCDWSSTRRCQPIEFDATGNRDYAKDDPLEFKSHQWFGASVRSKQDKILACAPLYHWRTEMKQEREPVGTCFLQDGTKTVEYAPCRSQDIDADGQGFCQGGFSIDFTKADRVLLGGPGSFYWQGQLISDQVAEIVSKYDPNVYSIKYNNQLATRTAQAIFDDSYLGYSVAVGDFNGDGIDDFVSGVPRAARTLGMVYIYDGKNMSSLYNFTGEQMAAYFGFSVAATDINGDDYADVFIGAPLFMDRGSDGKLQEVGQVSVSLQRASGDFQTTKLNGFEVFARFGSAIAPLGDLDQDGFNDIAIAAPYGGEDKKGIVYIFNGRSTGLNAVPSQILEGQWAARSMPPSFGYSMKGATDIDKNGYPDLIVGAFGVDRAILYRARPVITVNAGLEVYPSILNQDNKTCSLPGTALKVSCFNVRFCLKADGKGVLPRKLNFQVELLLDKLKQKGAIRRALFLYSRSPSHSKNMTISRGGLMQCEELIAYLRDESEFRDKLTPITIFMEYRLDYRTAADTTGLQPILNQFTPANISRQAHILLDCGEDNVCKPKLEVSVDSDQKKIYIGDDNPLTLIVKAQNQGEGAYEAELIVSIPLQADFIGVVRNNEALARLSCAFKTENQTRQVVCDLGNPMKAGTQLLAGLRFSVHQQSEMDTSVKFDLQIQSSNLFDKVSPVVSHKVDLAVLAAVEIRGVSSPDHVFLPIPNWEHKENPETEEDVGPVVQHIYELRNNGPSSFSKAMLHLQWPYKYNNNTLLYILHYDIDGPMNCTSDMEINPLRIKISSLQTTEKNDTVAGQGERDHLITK", "T1 sequence (P06756 891-1048 partner limits assumed)": "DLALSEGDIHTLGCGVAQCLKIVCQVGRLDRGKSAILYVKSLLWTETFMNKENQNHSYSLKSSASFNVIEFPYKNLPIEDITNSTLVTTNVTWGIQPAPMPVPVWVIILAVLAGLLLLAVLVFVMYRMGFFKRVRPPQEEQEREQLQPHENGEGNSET", "T1 sequence (P05106 27-788)": "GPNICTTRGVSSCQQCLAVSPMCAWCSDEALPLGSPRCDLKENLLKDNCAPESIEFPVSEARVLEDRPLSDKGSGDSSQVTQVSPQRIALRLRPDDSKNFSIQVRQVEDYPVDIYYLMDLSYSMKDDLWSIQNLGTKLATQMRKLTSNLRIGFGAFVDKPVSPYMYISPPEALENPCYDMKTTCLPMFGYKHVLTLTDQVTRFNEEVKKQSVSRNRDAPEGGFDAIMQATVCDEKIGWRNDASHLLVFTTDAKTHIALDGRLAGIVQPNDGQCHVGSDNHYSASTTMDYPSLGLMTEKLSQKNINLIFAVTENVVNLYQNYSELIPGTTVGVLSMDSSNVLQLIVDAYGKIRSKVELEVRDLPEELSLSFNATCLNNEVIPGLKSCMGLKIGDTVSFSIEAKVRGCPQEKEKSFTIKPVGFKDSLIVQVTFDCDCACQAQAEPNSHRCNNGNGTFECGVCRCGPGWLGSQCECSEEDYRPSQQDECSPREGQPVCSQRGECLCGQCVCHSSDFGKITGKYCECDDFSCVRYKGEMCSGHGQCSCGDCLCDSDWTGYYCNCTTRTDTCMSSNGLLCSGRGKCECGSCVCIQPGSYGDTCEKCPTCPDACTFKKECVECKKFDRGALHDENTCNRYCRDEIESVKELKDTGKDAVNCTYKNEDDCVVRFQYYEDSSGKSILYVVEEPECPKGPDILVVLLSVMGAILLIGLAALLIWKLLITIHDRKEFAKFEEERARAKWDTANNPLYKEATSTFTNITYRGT", "assay": "Integrin receptor ligand binding assay (biotinylated vitronectin)", "conditions": "vitronectin as ligand", "protocol": "(§1) Integrin αVβ3 and α5β1 receptor purified from human placenta were obtained from Chemicon International. Platelet integrin αIIbβ3 was purified from platelets according to established procedures. Receptors were coated (100 μl/well) on Costar (3590) high capacity binding plates overnight at 4° C. Coating solution was discarded and plates were washed once with blocking/binding (B/B) buffer (50 mM Tris HCl, pH 7.4, 100 mM NaCl, 2 mM CaCl, 1 mM MgCl2, 1 mM MnCl2 and 1% BSA).\n(§2) One hundred ten microliters of B/B buffer was applied for 60 min at RT. Thirty μl of biotinylated extracellular matrix protein ligand (fibronectin for integrin α5β1, vitronectin for integrin αVβ3 and fibrinogen for integrin αIIbβ3) plus 50 μl of either SJ749 in B/B buffer or B/B buffer alone were added to each well, and incubated for 25 min at RT. Plates were washed twice with B/B buffer and incubated 1 hr at RT, with anti-biotin alkaline phosphatase (100 μl/well) in B/B buffer. Finally, plates were washed twice with B/B followed by the addition of 100 μl of phosphatase substrate (1.5 mg/ml). Reaction was stopped by adding 2N NaOH (25 μl/well), and the developed color was read at 405 nm."}, "[2]": {"test_system": "growth factor-induced angiogenesis in chick embryos", "assay": "Chick CAM angiogenesis assay, systemic administration, growth factor not specified", "assay_type": "in vivo", "conditions": "chick embryo, read-out: amount inhibiting angiogenesis by 50% (converted)", "excerpt": "Ten day old embryonated chicken eggs (McIntyre Poultry; Ramona Calif.) were candled to illuminate blood vessels under the shell and an area with a minimum of small blood vessels is identified. The CAM was dropped away from the eggshell in this area by grinding a small hole in the mineralized shell and applying pressure to the underlying inner shell membrane. This procedure caused an air pocket to shift from the wide end of the egg to the identified area and forcing a circular region of the CAM approximately 2 cm in diameter to drop away from the shell. […]\nFibronectin, vitronectin and fibronectin fragments (59 pmol in a final volume of 25 μl) were applied to stimulated or unstimulated CAM's. […] Blood vessel branch points in the 5 mm filter disk area were counted at 30× magnification in a blinded fashion as a size-independent quantitative indicator of vascular sprouting in response to growth factors. […] Thus, counting of blood vessel branch points is a useful quantitative means of obtaining an angiogenic index (Brooks et al., In “Methods in Molecular Biology” (Humana Press 1999). At least ten embryos were used per treatment group. Each experiment was performed a minimum of three times.\nData was evaluated in terms of average number of blood vessel branch points per treatment group +/−standard error of measurement . […]"}, "integrin α5β1": {"biological_target": "T2, integrin α5β1 (Homo sapiens, UniProt P05556+P08648)", "T2 construct": "Integrin αVβ3 and α5β1 receptor purified from human placenta were obtained from Chemicon International; purchased Chemicon International; host or cells: purified from human placenta (natural tissue)", "T2 sequence (P08648 42-894 limits assumed)": "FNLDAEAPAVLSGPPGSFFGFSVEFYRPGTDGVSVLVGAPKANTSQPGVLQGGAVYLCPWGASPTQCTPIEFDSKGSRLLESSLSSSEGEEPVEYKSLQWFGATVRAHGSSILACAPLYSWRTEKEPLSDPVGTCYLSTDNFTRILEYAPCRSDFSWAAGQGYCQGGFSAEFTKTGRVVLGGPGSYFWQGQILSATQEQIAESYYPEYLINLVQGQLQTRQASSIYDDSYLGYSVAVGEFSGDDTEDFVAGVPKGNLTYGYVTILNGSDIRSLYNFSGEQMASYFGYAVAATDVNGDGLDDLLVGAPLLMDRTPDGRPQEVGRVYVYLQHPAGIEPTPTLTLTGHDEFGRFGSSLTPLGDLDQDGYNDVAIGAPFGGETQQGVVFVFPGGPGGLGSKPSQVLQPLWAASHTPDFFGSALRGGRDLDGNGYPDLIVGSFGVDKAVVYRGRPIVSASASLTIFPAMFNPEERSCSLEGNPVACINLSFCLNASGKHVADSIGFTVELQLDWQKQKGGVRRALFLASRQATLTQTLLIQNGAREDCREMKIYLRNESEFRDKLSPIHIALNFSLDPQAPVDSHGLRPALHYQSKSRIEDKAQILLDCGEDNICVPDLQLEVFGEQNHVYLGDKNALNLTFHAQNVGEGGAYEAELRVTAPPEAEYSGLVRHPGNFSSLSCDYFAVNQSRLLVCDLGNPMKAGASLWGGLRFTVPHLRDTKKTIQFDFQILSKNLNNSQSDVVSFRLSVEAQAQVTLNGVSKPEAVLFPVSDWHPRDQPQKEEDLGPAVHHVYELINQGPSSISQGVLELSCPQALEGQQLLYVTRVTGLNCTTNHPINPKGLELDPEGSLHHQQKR", "T2 sequence (P08648 895-1049 partner limits assumed)": "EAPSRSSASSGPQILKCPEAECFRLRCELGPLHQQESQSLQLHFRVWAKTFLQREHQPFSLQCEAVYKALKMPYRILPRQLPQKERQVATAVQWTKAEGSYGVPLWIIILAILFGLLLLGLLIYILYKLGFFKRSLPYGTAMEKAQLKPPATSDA", "T2 sequence (P05556 21-798)": "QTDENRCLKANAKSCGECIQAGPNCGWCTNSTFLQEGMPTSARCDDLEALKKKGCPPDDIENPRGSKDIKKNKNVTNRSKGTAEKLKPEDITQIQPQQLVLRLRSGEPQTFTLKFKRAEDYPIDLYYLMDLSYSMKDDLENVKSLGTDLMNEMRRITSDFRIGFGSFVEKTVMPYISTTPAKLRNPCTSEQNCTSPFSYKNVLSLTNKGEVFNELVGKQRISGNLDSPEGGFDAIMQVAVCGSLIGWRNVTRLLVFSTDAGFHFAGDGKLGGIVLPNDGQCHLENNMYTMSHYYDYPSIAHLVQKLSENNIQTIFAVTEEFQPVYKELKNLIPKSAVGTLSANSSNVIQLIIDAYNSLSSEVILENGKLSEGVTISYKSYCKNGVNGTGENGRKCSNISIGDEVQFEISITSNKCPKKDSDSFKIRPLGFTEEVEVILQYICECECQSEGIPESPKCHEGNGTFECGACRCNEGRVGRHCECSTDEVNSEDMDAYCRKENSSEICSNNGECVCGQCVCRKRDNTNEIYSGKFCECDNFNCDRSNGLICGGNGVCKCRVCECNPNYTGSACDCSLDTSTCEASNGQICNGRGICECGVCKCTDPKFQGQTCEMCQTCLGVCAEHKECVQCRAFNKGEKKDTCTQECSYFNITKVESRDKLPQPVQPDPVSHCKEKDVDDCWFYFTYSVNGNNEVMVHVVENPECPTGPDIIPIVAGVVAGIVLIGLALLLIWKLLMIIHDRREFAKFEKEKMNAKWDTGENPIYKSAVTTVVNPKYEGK", "assay": "Integrin receptor ligand binding assay (biotinylated fibronectin)", "conditions": "fibronectin as ligand", "protocol": "as §1, §2"}}, "note": "Entries after “also recorded” stand apart in the source; their conditions may differ."}
{"smiles": "Cc1cc(C)c(S(=O)(=O)N[C@@H](CNC(=O)C2=NOC3(C2)CC(CNc2ccccn2)N(C(=O)OCc2ccccc2)C3)C(=O)O)c(C)c1", "note": "(some centres unmarked) [SJ749]", "values": [{"measurement": "effect on VEGF angiogenesis", "setting": "[1]", "value": "did not block"}, {"measurement": "effect on endothelial cell migration on fibronectin", "setting": "HUVEC's", "value": "highly effective"}, {"measurement": "effect on ligand binding to αVβ3 and other integrins", "setting": "integrin αVβ3", "value": "substantially less effective"}, {"measurement": "IC50", "setting": "[2]", "value": 7.5, "unit": "nM"}, {"measurement": "effect on ligand binding to α5β1", "setting": "integrin α5β1", "value": "selectively inhibited; also recorded: interfered"}]}
